From article PMC7933930, “Development of a small molecule that corrects misfolding and increases secretion of Z α1‐antitrypsin” (EMBO Molecular Medicine, 2021)

Experiments:
CHO‐TET‐ON‐Z‐A1AT cells = experiment: Tunicamycin sensitivity, cell viability (Cell Counting Kit‐8), cells expressing Z α1‐antitrypsin; format: cell-based; conditions: 10 μM GSK716, cells expressing Z α1‐antitrypsin, tunicamycin 36 h
Method: Figure 2 GSK716 inhibits polymerisation of Z α1‐antitrypsin in cell models of disease • A GSK716 was added to CHO‐TET‐ON‐Z‐A1AT cells (Ordóñez et al, 2013) with simultaneous induction of Z α1‐antitrypsin expression using doxycycline, and polymer load was quantified with the 2C1 monoclonal antibody that is specific to pathological polymers of α1‐antitrypsin (Miranda et al, 2010). […] Data were normalised to vehicle and a control compound from the GSK716 series at saturating concentration. […] It induced an approximately threefold increase in secreted levels of Z α1‐antitrypsin compared with vehicle control. This was apparent even after polymers had been allowed to form. Scale bar: 100 µm. Data presented as mean ± SD, n = 8 (secretion) and n = 6 (polymer inhibition). • E CHO tetracycline‐inducible cells expressing Z α1‐antitrypsin were induced with 0.5 μg/ml doxycycline for 48 h and treated with 10 μM GSK716. […] For every time point, NP‐40‐soluble and NP‐40‐insoluble fractions were separated and immunoprecipitated with the 2C1 mAb and resolved by 4–12% w/v SDS–PAGE and α1‐antitrypsin detected by immunoblotting. […] Cell viability was measured by Cell Counting Kit‐8. […] Samples were resolved by 4–12% w/v acrylamide SDS–PAGE and detected by autoradiography. • H The graphs show the effect of GSK716 on intracellular and extracellular Z α1‐antitrypsin (mean ± SEM, n = 2). […]

Cell Health = experiment: Off‐target panel: Cell Health; format: cell-based
Method: (§1) GSK716 selectivity and PK properties were profiled in order to investigate the suitability of GSK716 for progression into in vivo studies and the potential for taking it forward as a clinical candidate for testing in humans. Since GSK716 results in loss of inhibitory activity of α1‐antitrypsin, the effect of the compound was assessed on other closely related serpins. […] Furthermore, there were no off‐target effects in a panel of assays considered predictive of known safety liabilities that precluded further development of GSK716 (Table EV1).

CYP3A4 = target: T1, CYP3A4 (Homo sapiens, UniProt P08684); experiment: CYP3A4 TDI fold IC50 shift (human liver microsomes, midazolam); format: in vitro ADME; conditions: probe midazolam (12.5 µM), read-out: time‐dependent inhibition of CYP3A4, fold shift in IC50
T1 construct: pre‐incubated at 37°C with human liver microsomes (0.1 mg/ml); from tissue; host or cells: human liver microsomes
Method: Seven concentrations of GSK716 (2, 4, 10, 20, 40, 100 and 200 µM) plus a vehicle control (0.25% v/v DMSO in pre‐incubation) were pre‐incubated at 37°C with human liver microsomes (0.1 mg/ml) and NADPH (1 mM) for a range of five pre‐incubation times (5, 10, 15, 20 and 30 min) with a 0 min pre‐incubation, in duplicate. At the end of the individual pre‐incubations, an aliquot of the pre‐incubation mixture was added to an incubation mixture in a 1:20 dilution for GSK716 with the specific CYP3A4 probe substrate, midazolam (12.5 µM, equivalent to 5xKm44) and NADPH (1 mM) for a 5 min. The reactions were terminated by transferring an aliquot of incubation mixture to methanol. The samples were mixed and then centrifuged at 2,500 rpm for 30 min at 4°C. Aliquots of the supernatant were diluted with formic acid (final concentration 0.1 % v/v) in deionised water containing internal standard (metoprolol; final concentration 0.03 mg/l). Samples were analysed by LC‐MS/MS.

Vasopressin V1a = Vasopressin V1a (Homo sapiens, UniProt P37288); experiment: Off‐target panel: Vasopressin V1a (DRX); format: cell-based; conditions: Antagonist, read-out: Mean (PXC50)
Method: as §1

Sequence of Vasopressin V1a (P37288 whole entry): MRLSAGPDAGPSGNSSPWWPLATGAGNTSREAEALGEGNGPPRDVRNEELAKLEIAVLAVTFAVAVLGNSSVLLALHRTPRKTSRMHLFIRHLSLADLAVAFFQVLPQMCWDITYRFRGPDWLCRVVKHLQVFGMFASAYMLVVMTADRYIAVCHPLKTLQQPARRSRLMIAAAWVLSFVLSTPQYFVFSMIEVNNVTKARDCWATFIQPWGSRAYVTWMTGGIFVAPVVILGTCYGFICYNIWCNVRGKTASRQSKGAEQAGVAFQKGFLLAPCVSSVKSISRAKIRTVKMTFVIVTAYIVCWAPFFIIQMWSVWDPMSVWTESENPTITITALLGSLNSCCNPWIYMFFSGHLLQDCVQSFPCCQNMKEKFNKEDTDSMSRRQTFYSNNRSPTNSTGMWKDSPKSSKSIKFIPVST
T1 sequence (P08684 whole entry): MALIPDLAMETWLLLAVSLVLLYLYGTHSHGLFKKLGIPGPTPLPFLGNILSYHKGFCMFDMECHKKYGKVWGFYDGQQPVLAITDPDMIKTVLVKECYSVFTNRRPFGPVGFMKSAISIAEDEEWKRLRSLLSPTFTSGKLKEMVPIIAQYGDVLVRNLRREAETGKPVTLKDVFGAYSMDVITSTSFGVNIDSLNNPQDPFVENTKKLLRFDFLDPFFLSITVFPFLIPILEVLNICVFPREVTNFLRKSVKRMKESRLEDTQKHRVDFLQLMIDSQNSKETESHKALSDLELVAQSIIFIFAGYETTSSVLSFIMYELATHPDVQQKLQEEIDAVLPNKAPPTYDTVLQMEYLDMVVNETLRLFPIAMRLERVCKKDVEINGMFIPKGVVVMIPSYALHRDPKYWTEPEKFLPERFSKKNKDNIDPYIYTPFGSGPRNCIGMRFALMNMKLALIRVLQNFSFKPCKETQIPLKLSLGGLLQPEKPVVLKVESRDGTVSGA

CCC[C@@H](NC(=O)c1cccc2c1CC(=O)N2)[C@@H](O)c1cccc(F)c1C [GSK716]
sensitivity to tunicamycin (cell viability) (CHO‐TET‐ON‐Z‐A1AT cells): restored sensitivity of Z α1‐antitrypsin expressing cells to that of the wild‐type control cells
Mean (PXC50) (Cell Health; Membrane Permeability): <3.7
Mean (PXC50) (Cell Health; Mitochondrial Potential): 3.8
Mean (PXC50) (Cell Health; Nucleus (size)): <3.7
IC50 shift (CYP3A4): 1.59
IC50 (Vasopressin V1a): > 50.1 µM
